Experimental data published in publication doi:10.1101/2025.04.10.648262, “Time-resolved phenotyping at subcellular resolution reveals shared principles and key trade-offs across antimicrobial peptide activities” (bioRxiv, 2026).
Bridge positions count the residues as written; N and C are the ends. Peptide text beside a SMILES is read from it.

Test system: E. coli ATCC 25922
Format: cell-based, Escherichia coli
Conditions: E. coli ATCC 25922, M9gluCAAT, 37°C, 20 h; mode across four biological replicates
Method: Strain ATCC 25922GFP (ATCC, Virginia, USA), which carries a GFP-expressing plasmid, was selected for biofilm experiments. The strain’s ability to form biofilms was first verified at 37°C using Congo Red staining on agar plate containing M9gluCAAT. Congo Red dye binds curli, a major component of the biofilm extracellular matrix. Strain ATCC 25922 (lacking the GFP-expressing plasmid) was used for MIC determination (to avoid interference from the presence of ampicillin required to maintain the plasmid) following the standard growth protocol described above.
To determine the minimal inhibitory concentration (MIC) of the selected AMPs against either MG1655 or ATCC 25922 E. coli strains, exponentially growing cells were diluted in fresh medium to an OD = 10^−6 (~500 cells/mL) and mixed 50:50 with titrated AMP concentrations (which were chosen to be over a range that included the MIC) in a 96-well plate (flat bottom with low evaporation lid, 3595, Corning, Arizona, USA). A final OD of 5 × 10^−7 corresponds to ~250 cells/mL. OD curves were sampled every 5 min for a total of 48 h using a microplate reader (BioTek Synergy 2, Agilent Technologies Inc., California, USA). Raw data were exported as a text file and analysed using a custom-written Python script (microplate_reader_analysis.py). To measure maximum growth rates, the log(OD) was fitted using a linear regression over a 12-point moving window (60 min), which provides the instantaneous growth rate (log(OD)/h), from which the global maximum was computed. The MIC was defined as the minimum AMP concentration for which the maximum growth rate was < 0.2 log(OD)/h within the first 20 h of incubation. Each MIC experiment was performed independently at least three times (with at least two technical replicates each), and the mode across all replicates was taken as the final MIC; in the rare cases of a tie, an additional replicate was performed, which was sufficient to resolve it.

## CC[C@H](C)[C@@H]1NC(=O)CNC(=O)[C@H](CCCNC(=N)N)NC(=O)[C@H](Cc2ccc(O)cc2)NC(=O)[C@@H]2CSSC[C@H](NC1=O)C(=O)N[C@@H](Cc1ccc(O)cc1)C(=O)N[C@@H](CCCNC(=N)N)C(=O)N[C@@H](CCCNC(=N)N)C(=O)N[C@H](C(=O)N[C@@H](CCCNC(=N)N)C(N)=O)CSSC[C@H](NC(=O)[C@H](Cc1c[nH]c3ccccc13)NC(=O)[C@@H](N)CCCCN)C(=O)N[C@@H](Cc1ccccc1)C(=O)N[C@@H](CCCNC(=N)N)C(=O)N[C@@H](C(C)C)C(=O)N2 [Tac1, tachyplesin-1] (H-KWCFRVCYRGICYRRCR-NH2; disulfide 3-16, 7-12 (inferred); N-terminus assumed)
  MIC (mode MIC): 1.2 µM
